# Source: patent publication US20160312311A1, “MARKERS FOR ISOCITRATE DEHYDROGENASE INHIBITORS” (NOVARTIS AG, priority 2013, published 2016)
# Tests used:
# Assay type in all cases: cell-based
# HCT116 IDH1/2 WT cells = test: H3K9me2 Western blot after exogenous 2-HG treatment; settings: 10 mM 2-HG or 1 mM Cell-Permeable 2-HG for about 30 days
# Procedure: In order to evaluate the effect of IDH1 mutations, IDH2 mutations and 2-HG on H3K9me2, HCT116 colorectal cells that were engineered to endogenously express various clinically relevant mutations in IDH1 or IDH2 (Horizon Discovery, Cambridge, UK) were assayed for changes in H3K9me2 levels. […] HCT116 IDH1/2 WT cells were also exogenously treated with 10 mM 2-HG or 1 mM Cell-Permeable 2-HG for about 30 days. All cells were grown in McCoy's 5A Media (Life Technologies, Carlsbad, Calif.) containing 10% Fetal Bovine Serum (Hyclone, Logan, Utah). At least 10^6 cells per line were harvested and subject to a Histone Acid Extraction® Protocol (Abcam, Cambridge, Mass.). Cells in culture were rinsed with PBS and detached using 0.25% trypsin. Trypsin was deactivated using fresh media and the sample was spun down at 1000 rpm for 5 minutes. Media was aspirated and samples were kept at −80° C. until ready for processing.
# Cells were washed twice in ice-cold PBS supplemented with 5 mM sodium butyrate (Sigma-Aldrich, St. Louis Mo.). Cells were then resuspended in Triton Extraction Buffer (TEB: PBS containing 0.5% TritonX 100(v/v), 2 mM phenylmethylsulfonyl fluoride (PMSF), 0.02% (w/v) sodium azide) also supplemented with 5 mM sodium butyrate at density of 10^7 cells per mL. […] Histone extracts were subsequently quantified using a detergent compatible (“DC”) protein assay kit (BioRad, Hercules, Calif.). […]
# [1] = system: HCT116 cells (wild type for IDH1 and IDH2); test: H3K9me2 Western blot in IDH1 and IDH2 wild type cell line; settings: increasing concentrations, 3-6 days
# Procedure: In order to examine the role of H3K9me2 levels as marker, cells that were wild type for IDH1 and IDH2, for example HCT116 cells, were treated with a compound that inhibits IDH1 mutant activity (compound 162). HCT116 colon cells cancer cells (ATCC CCL-247) were cultured in McCoy's 5A (Life Technologies, Carlsbad, Calif.) supplemented with 10% fetal bovine serum (Hyclone, Logan Utah). These cells were treated for 3-6 days with increasing concentrations of compound 162 or DMSO vehicle as control.
# Histone extracts were prepared with NuPAGE® 4×LDS Sample Buffer (Life Technologies, Carlsbad, Calif.) and heated to 70° C. for 10 minutes. Samples were run on NuPage® Novex 4-12% Bis-Tris gel (Life Technologies, Carlsbad, Calif.) using MES buffer (Life Technologies, Carlsbad, Calif.). The gel was then transferred onto nitrocellulose membrane using the iBlot system (Life Technologies, Carlsbad Calif.) on setting P3 for 7 minutes. The antibodies used are shown above in Table 1.
# [2] = system: SNU1079 cholangiocarcinoma cells (IDH1-R132C/WT), IDH2-WT background; test: H3K9me2 Western blot in SNU1079 expressing IDH2 WT; settings: doxycycline-induced IDH2 WT, day 6
# Procedure: (§1) As disclosed in Example 4, compound 162 is specific for IDH1 mutations. As such, it is a useful compound to determine the contribution of IDH2 to H3K9me2 methylation levels. SNU1079 cholangiocarcinoma cells (KCLB) contain an IDH1 mutation (IDH1-R132C/WT). These cells were cultured in RPMI-1640 (Life Technologies, Carlsbad, Calif.) supplemented with 1% Sodium Pyruvate and 10% Tet-free fetal bovine serum (Hyclone, Logan Utah). Full length IDH2 cDNAs (WT or R172K) were cloned into pLKO-TREX-neomycin for lentiviral transduction (Wee et al., Proc. Nat. Acad. Sci. U.S.A. 2008 105(35):13057-13062). Lentiviral particles were produced by co-transfecting the cDNA expression vector of interest with packaging plasmids Δ8.9 and VSVG into 293T cells (ATCC CRL-11268) using Transit293® transfection reagent (Mirus, Madison, Wis.). Lentiviral supernatants were then used to spin-infect SNU1079 cells in the presence of 8 μg/mL polybrene. Cells recovered overnight in fresh medium and were then selected and continually cultured in appropriate antibiotics.
# (§2) SNU1079 stably expressing IDH2 isoforms were co-treated with doxycycline (100 ng/mL) final concentration to induce IDH2 (WT or R172K) expression. These lines were treated with DMSO or doses of compound 162. Cells were harvested on day 6 post-treatment and processed for histones as described above. […]
# [3] = system: SNU1079 cholangiocarcinoma cells (IDH1-R132C/WT), IDH2-R172K background; test: H3K9me2 Western blot in SNU1079 expressing IDH2-R172K; settings: doxycycline-induced IDH2-R172K, day 6
# Procedure: as §1, §2
# [4] = system: IDH1-R132C mutant HT1080 sarcoma cells; test: H3K9me2 immunohistochemistry with quantitative image analysis; settings: 5 μM, 6 days
# Procedure: In order to determine if changes in H3K9me2 level could be detected via immunohistochemistry, HT1080 cell lines were plated onto […] tissue culture flasks (Corning, Cat #3001, Tewksbury, Mass.). The cells were treated with DMSO or 5 μM compound 162 and incubated for 6 days, with media change at day 3. HT1080 cell pellets were harvested by removing media, washing with 1×PBS, and adding 10 ml of 10% neutral buffer formalin. Cells were then scraped from the bottom of the flask and placed in a 50 ml conical tube, filled to ˜50 ml with 10% neutral buffered formalin, and allowed to fix for 1-2 hours. […]
# FFPE slides were cut at 3.5 μm thickness, mounted on charged slides (Thermo-Scientific Colormark® Plus Cat #CM-5951, West Palm Beach, Fla.) and baked at 60° C. for 1 hour. […] The secondary antibody, Ventana OmniMap® HRP-conjugated anti-mouse (Ventana Cat #760-4310 Tucson, Ariz.), was incubated for 4 minutes and detected with Ventana's ChromoMap® DAB detection kit (Ventana Cat #760-159, Tucson, Ariz.). […]
# Coverslipped slides were scanned with Aperio ScanScope ® XT (Vista, Calif.) for quantitative digital image analysis. Digital images were analyzed with Visiopharm® (Hoersholm, Denmark) image analysis software. The nuclear detection algorithm detected both hematoxylin and DAB-stained nuclei in the image. […]
# HT1080 and SNU1079 cells = test: Histone profiling by LC-MS/MS, compound 162 vs. DMSO; settings: 3 μM, 6 days
# Procedure: (§3) Also profiled were three endogenously mutant cell lines upon modulation of the target by chemical or genetic means in order to evaluate other lysine methylation marks. We used histone acid extracts (as described in Example 1) from HT1080 and SNU1079 cells treated with 3 μM compound 162 or DMSO control for 6 days, as well as SW1353 cells that have been induced (100 ng/mL doxycycline) with IDH2 specific shRNA (shIDH2-891 or shNTC) for 6 days. Histones were further enriched with ActiveMotif® Histone purification mini kit (ActiveMotif Inc., Carlsbad, Calif.)
# (§4) The purified histones were desalted by off line reversed phase chromatography on an 1200 Agilent tower (Agilent, Santa Clara, Calif.) using a Jupiter® 5 μm C4 300 Å Column 150×2 mm (Phenomenex, Torrance, Calif.). The resulting peak area was used to estimate concentration against the peak area of histones of known concentration. The desalted histones were lyophilyzed prior to lysine derivatization. […]
# (§5) The data obtained via mass spectrometry was interpreted using Mascot Distiller® (Matrix Science, Boston, Mass.) for identification followed by manual verification. The peak area obtained from the data acquired was processed using Skyline Software® (v1.4.0.422 University of Washington, Seattle, Wash.) for quantitation of the peptides bearing post translational modifications.
# [5] = system: SW1353 chondrosarcoma cells (IDH2-R172S/WT); test: H3K9me2 Western blot in IDH2 mutant SW1353 cells upon IDH2 knockdown; settings: SW1353 stable lines, doxycycline 100 ng/mL, 6 days
# Procedure: SW1353 chondrosarcoma cells (ATCC HTB-94) contain an activating mutation in IDH2 (IDH2-R172S/WT). These cells were cultured in RPM-1640 (Life Technologies, Carlsbad, Calif.) supplemented with 1% sodium pyruvate and 10% Tet-Free fetal bovine serum. IDH2 shRNAs were cloned into pLKO-Tet-ON-puromycin vectors. All shRNAs were validated to give sufficient knockdown of target as judged by RNA, protein, and reduced 2-HG production.
# Lentiviral particles were produced by co-transfecting the shRNA plasmid of interest with packaging plasmids Δ8.9 and VSVG into 293T cells using Transit293® transfection reagent (Mirus, Madison, Wis.). Lentiviral supernatants were then used to spin-infect HT-1080 cells in the presence of 8 μg/mL polybrene. Cells recovered overnight in fresh medium and were then selected and continually cultured in appropriate antibiotics.
# SW1353 stable lines were cultured with and without doxycycline (100 ng/mL final concentration) for 6 days in the absence of selection. At day 6, cells were lifted using trypsin and histones were extracted as previously described.
# Histone extracts were prepared with NuPAGE® 4×LDS Sample Buffer (Life Technologies, Carlsbad, Calif.) and heated to 70° C. for 10 minutes. Samples were run on NuPage® Novex 4-12% Bis-Tris gel (Life Technologies, Carlsbad, Calif.) using MES buffer (Life Technologies, Carlsbad, Calif.). […]
# SW1353 cells = test: Histone profiling by LC-MS/MS, IDH2 shRNA vs. non-targeting control shRNA; settings: doxycycline 100 ng/mL, 6 days, vs. shNTC
# Procedure: as §3, §4, §5
molecule,measurement,setting,value
"O=C(O)CCC(O)C(=O)O (stereo not drawn) [2-HG, 2-hydroxyglutarate]","H3K9me2 levels (Western blot, FIG. 1B)",HCT116 IDH1/2 WT cells,sufficient to increase H3K9me2 levels
"CC(C)[C@H]1COC(=O)N1c1ccnc(N[C@@H](C)c2ccc(Oc3ccccc3)cc2)n1 [compound 162, (S)-4-isopropyl-3-(2-(((S)-1-(4 phenoxyphenyl)ethyl)amino)pyrimidin-4-yl)oxazolidin-2-one]","H3K9me2 levels (Western blot, FIG. 4)",[1],does not affect H3K9me2 levels
same,"H3K9me2 level (Western blot, FIG. 5 left panel)",[2],able to reduce the H3K9me2 level in a dose-dependent manner
same,"H3K9me2 level (Western blot, FIG. 5 right panel)",[3],the reduction of H3K9me2 level is attenuated
same,H3K9me2 levels by immunohistochemistry (FIG. 6A),[4],decreases levels H3K9me2
same,"decrease in H3K9me2 levels, quantitative image analysis (FIG. 6B)","[4]; entire cross section, vs DMSO",27%
same,"H3K9me0 level, change from control (mass spectrometry, FIG. 7)",HT1080 and SNU1079 cells,H3K9me0 level increases
same,"H3K9me2 level, change from control (mass spectrometry, FIG. 7)",HT1080 and SNU1079 cells,H3K9me2 level reduction
"shIDH2-309: IDH2 specific shRNA, 5′ GTGGACATCCAGCTAAAGTAT 3′ (SEQ ID NO: 9)","H3K9me2 methylation level (Western blot, FIG. 3)",[5],H3K9me2 methylation level is reduced
"shIDH2-891: IDH2 specific shRNA, 5′ ATCTTTGACAAGCACTATAAG 3′ (SEQ ID NO: 10)","H3K9me2 methylation level (Western blot, FIG. 3)",[5],H3K9me2 methylation level is reduced
same,"H3K9me0 level, change from control (mass spectrometry, FIG. 7)",SW1353 cells,H3K9me0 level increases
same,"H3K9me2 level, change from control (mass spectrometry, FIG. 7)",SW1353 cells,H3K9me2 level reduction
